The values that follow come from article PMC3548330 (Bioconjugate chemistry, 2012).

One assay addresses Ag85C (Mycobacterium tuberculosis, UniProt P9WQN9). Kind of assay: 4-methylumbelliferyl butyrate. The format is biochemical.
Another assay has as its system Mycobacterium aurum. As to conditions: surrogate for Mycobacterium tuberculosis; cited from earlier work.
A further assay has as its system Ag85s. As to conditions: screening of the NIH Clinical Collection; cited from earlier work.
The subject of the next assay is M. tuberculosis. As to conditions: cited from earlier work.
A further assay deals with synthesis of TDM. As to conditions: cited from earlier work.
In assay [1] the test system is M. tuberculosis inside macrophages. As to conditions: 100 µM concentration; cited from earlier work.
The next assay has as its system M. smegmatis. As to conditions: cited from earlier work.
The mark [2] stands for this setting: 600 nM Ag85C, 10 mM trehalose, 100 µM 4-MUB, 37 °C, inhibitor 20-320 µM.

SMILES strings stand for the structures. Converted amounts (≈) assume the structure as drawn. Read-outs that look alike come from different tables or passages of the source.

Ag85C, sequence (P9WQN9 46-340): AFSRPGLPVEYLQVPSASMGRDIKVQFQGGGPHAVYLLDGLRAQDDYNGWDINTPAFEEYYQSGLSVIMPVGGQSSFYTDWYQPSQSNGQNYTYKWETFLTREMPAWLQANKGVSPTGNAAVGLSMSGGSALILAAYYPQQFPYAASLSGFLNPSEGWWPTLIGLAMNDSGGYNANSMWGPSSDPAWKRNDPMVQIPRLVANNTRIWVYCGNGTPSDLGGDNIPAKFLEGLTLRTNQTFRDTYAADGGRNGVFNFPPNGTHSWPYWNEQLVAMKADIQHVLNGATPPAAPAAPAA

At Ag85C, `COC1O[C@H](CSCCn2c(=O)[nH]c3sc4c(c3c2=O)CCCC4)[C@@H](O)[C@@H]1O` (stereo partly drawn) [Compound 14, Methyl 5-S-[2-(2,4-dioxo-1,4,5,6,7,8-hexahydro[1]benzothieno[2,3-d]-pyrimidin-3(2H)-yl)ethyl]-5-thioarabinofuranoside] returned a Ki of 47.1 µM.

As to `CO[C@H]1O[C@H](CSCC(=O)Nc2sc3c(c2C#N)CCCC3)[C@@H](O)[C@@H]1O` [Compound 13b, N-(3-cyano-4,5,6,7-tetrahydrobenzo[b]thiophen-2-yl)-2-(methyl 5-thio-α-D-arabinofuranoside-5-S-yl)acetamide], at Ag85C (setting [2]), the Ki stood at 34.8 µM. In other words, the double-digit micromolar range.

As to `[N-]=[N+]=NC[C@H]1O[C@H](O[C@H]2O[C@H](CO)[C@@H](O)[C@H](O)[C@H]2O)[C@H](O)[C@@H](O)[C@@H]1O` [6-azido-6-deoxytrehalose], the “growth inhibition of Mycobacterium aurum” value in the assay with Mycobacterium aurum is on record as “completely inhibit the growth”.

Consider `O=c1c2ccccc2[se]n1-c1ccccc1` [ebselen], for which the “inhibition of Ag85s” value with Ag85s was “nM inhibitor”.

Regarding `CCCC1CCc2c(sc(N)c2C#N)C1` (centres unmarked) [Compound I3-AG85, 2-amino-6-propyl-4,5,6,7-tetrahydro-1-benzothiophene-3-carbonitrile], the “concentration inhibiting growth of MDR and XDR strains” value in the assay with M. tuberculosis (7 MDR and 3 XDR M. tuberculosis strains) is reported as at most 200 µM. The MIC in the assay on M. tuberculosis (M. tuberculosis) is given as 100 µg/mL (≈ 454 µM). In the assay on synthesis of TDM, the “inhibition of the synthesis of TDM” value is given as “inhibit the synthesis of TDM”. Further, in assay [1], the “survival of M. tuberculosis inside macrophages” value was “reduced survival”.

The compound `CCOC(=O)c1c(NC(=O)CSCC2OC(OC)C(O)C2O)sc2c1CCCC2` [Compound 13a, Ethyl 2-(methyl 5-thio-α-D-arabinofuranoside-5-S-yl)acetamido-4,5,6,7-tetrahydrobenzo[b]thiophene-3-carboxylate] displayed a Ki at Ag85C (setting [2]) of 18.2 µM.

Turning to `N#Cc1c(N)sc2c1CCCC2` [Compound 1b, 2-Amino-4,5,6,7-tetrahydrobenzo[b]thiophene-3-carbonitrile], the MIC in the assay with M. smegmatis was 50 to 100 µg/mL.

`CCOC(=O)c1c(NC(=O)C(CC)SC[C@H]2O[C@H](OC)[C@@H](O)[C@@H]2O)sc2c1CCCC2` (stereo partly drawn) [Compound 13c, Ethyl 2-(methyl 5-thio-α-D-arabinofuranoside-5-S-yl)butamido-4,5,6,7-tetrahydrobenzo[b]thiophene-3-carboxylate] had an inhibition constant (Ki) at Ag85C (setting [2]) of 71 µM.
